Results: US4202891A, “15-Oxygenated sterol compounds and the use of such compounds to inhibit the biosynthesis of sterols” (priority 1977, dated 1980)
Like-named read-outs stand apart in the source and are kept apart here.

How the values were obtained:
serum cholesterol = assay: Effect on serum cholesterol levels in rats, daily subcutaneous injection (Examples 41, 42); assay type: in vivo, rat (male, Sprague-Dawley); conditions: for Serum Cholesterol (Mean ± S.E.M.): 5 mg s.c. once a day in triolein; for decrease in serum cholesterol levels (in words) / % Reduction of serum cholesterol (Mean ± S.E.M.): 5 mg s.c. once a day; for decrease in serum cholesterol levels (in words): after 3, 6, 9, 12 days vs same rats before, after 12 days vs triolein; for % Reduction of serum cholesterol (Mean ± S.E.M.): from initial levels in same rats
Procedure: Male rats of the Sprague-Dawley strain were fed Purina rat chow ad libidum. The rats were maintained on a light (7 A.M.-6 P.M.) -dark (6 P.M.-7 A.M.) cycle throughout the study and for a period of at least 4 days prior to the initiation of the study.
(§1) 3β-Hexadecanoyloxy-5α-cholest-8(14)-en-15-one (5 mg; dissolved in 0.25 ml of triolein), hereafter referred to as the "palmitate ester", or 3β-hemisuccinoyloxy-5α-cholest-8(14)-en-15-one (5 mg; suspended in 0.25 ml of triolein through the use of a tight-fitting all-glass homogenizer), hereafter referred to as the "hemisuccinate ester", were administered subcutaneously once a day at about 12 P.M. to each of eight and six rats, respectively. Control animals (8) received daily injections of triolein (0.25 ml).
Blood samples were taken from the rats periodically and the serum cholesterol concentrations measured, in duplicate, by the method of Abell et al., J. Biol. Chem., Vol. 195, pp. 357-366 ([…]).
Following generally the procedure described in Example 41, 3β-Ethoxy-14α-ethyl-5α-cholest-7-en-15-one (5 mg) in triolein (0.25 ml) was administered subcutaneously once a day to each of eight rats. Control animals (8) received daily injections of triolein (0.25 ml).
Similarly, 5α-cholest-8(14)-en-3β-ol-15-one (2mg) in (0.2 ml) olive oil or 5.0 mg in 0.5 ml of olive oil) was administered subcutaneously once a day to each of a group of rats. The 2 mg dose was administered to 12 rats, while a like number of rats received daily injections of 0.2 ml olive oil. 5 mg doses were administered to each of 6 rats, while 6 control animals received daily injections of 0.5 ml olive oil. The rats used in this study initially weighed between 110 and 190 grams.

liver = assay type: in vivo, rat (male, Sprague-Dawley); conditions: 5 mg s.c. once a day
Procedure: as §1
The mean values of the liver weights of the triolein-treated rats (9.6 g±0.08, S.E.M.). S.E. differed from those of the palmitate ester-treated rats (11.4 g±0.5, S.E.M.). Similarly, the mean value of the liver weights, when expressed as a percentage of the total body weight, of the triolein-treated rats (4.09%±0.08, S.E.M.) differed from the mean value for the palmitate ester-treated rats (4.53%±0.09, S.E.M.).

HMG-CoA reductase = assay: Reduction of the activity of HMG-CoA reductase in L cell cultures; assay type: cell-based, mouse; conditions: read-out: Concentrations Required for 50% Reduction of the Activity of HMG-CoA Reductase
Procedure: (§2) The primary liver cell cultures were prepared from 16-day-old (C57BL/6J fetuses and grown in chemically defined medium (serum-free) as described in the above cited publications. The L cells, a subline of NCTC clone 929 mouse fibroblasts, were grown in chemically defined medium (serum-free) as described in the publications. These L cells are transformed fibroblasts which are regarded as malignant since they will grow as tumors if injected into the mouse strain from which they were initially obtained.
(§3) The preparation of steroid-containing media, procedures for assays of the conversion of [1-^14 C]acetate into digitonin-precipitable sterols, fatty acids, and CO2 and methods for the measurement of DNA, protein, and HMG-CoA reductase were as described in the published articles. L cell cultures were preincubated with the 15-oxygenated sterols and their derivatives for 4 hours, then [1-^14 C]acetate was added at a concentration of 4 μmoles per ml (4 μCi per ml); or the L cell cultures were incubated for 5 hours with the 15-oxygenated sterols before they were harvested for determination of microsomal HMG-CoA reductase activity.
A number of the 15-oxygenated sterols have also been tested with respect to their effects on the activity and/or levels of the enzyme HMG-CoA reductase (3-hydroxy-3-methylglutaryl coenzyme A reductase) in the L cells and in the liver cells. As noted previously, this enzyme catalyzes the reduction of 3-hydroxy-3-methylglutaryl coenzyme A to yield mevalonic acid, an essential intermediate in the biosynthesis of sterols and of a number of other essential compounds in cells.
Using the technique described by Kandutsch and Chen in the article cited in the previous example, the concentrations of various 15-oxygenated sterols required to reduce the levels of activity of HMG-CoA reductase by 50% was determined in the cells of the L cells in culture and of the primary cultures of liver cells.

[1] = assay type: in vivo, rat (male, Sprague-Dawley); conditions: for average percentage weight gain (mean±S.E.M.): 5 mg s.c. once a day, total experimental period; for differences in growth versus vehicle-treated rats (in words): daily s.c.
Procedure: as §1
The average percentage weight gain over the total experimental period in the palmitate, hemisuccinate, and triolein groups were (mean±S.E.M.) 40.5±4.6, 40.7±1.6, and 43.6±3.3, respectively.

[2] = system: sterol biosynthesis in L cells; assay: Inhibition of sterol synthesis from [1-14C]acetate in L cell cultures; assay type: cell-based; conditions: Mus musculus; L cell cultures; read-out: Concentrations Required for 50% Inhibition of Sterol Synthesis
Procedure: The effect of various 15-oxygenated sterols on sterol biosynthesis in L cells and in primary cultures of mouse liver cells was tested essentially under conditions described in detail previously [A. A. Kandutsch and H. W. Chen, J. Biol. Chem., Vol. 248, pp. 8408-8417 (1973) and A. A. Kandutsch and H. W. Chen, J. Biol. Chem., Vol. 249, pp. 6057-6061 (1974`)].
as §2, §3
The test compounds were tested over a range of at least 4 concentrations and the assay was repeated until the concentration of test compound required to produce 50% inhibition was located on the steeply declining portion of an activity vs. concentration plot. To diminish any possible effects of generalized differences in cellular metabolism, the rates of sterol synthesis from [1-^14 C]acetate were calculated as the ratio of [^14 C]sterols to [^14 C]fatty acids as described in the two cited articles by Kandutsch and Chen.

plasma cholesterol = conditions: cited from earlier work
[3] = system: sterol biosynthesis in L cells; conditions: cited from earlier work; for inhibitory action on the synthesis of sterols (in words): L cells in culture
[4] = system: sterol biosynthesis in primary cultures of mouse liver cells; conditions: cited from earlier work; for inhibitory action on the synthesis of sterols (in words): primary cultures of mouse liver cells

SMILES	Serum Cholesterol (Mean ± S.E.M.) (serum cholesterol; day 0 (initial)) [mg per 100 ml]	Serum Cholesterol (Mean ± S.E.M.) (serum cholesterol; day 3) [mg per 100 ml]	Serum Cholesterol (Mean ± S.E.M.) (serum cholesterol; day 6) [mg per 100 ml]	Serum Cholesterol (Mean ± S.E.M.) (serum cholesterol; day 9) [mg per 100 ml]	Serum Cholesterol (Mean ± S.E.M.) (serum cholesterol; day 12) [mg per 100 ml]	decrease in serum cholesterol levels (in words) (serum cholesterol)	% Reduction of serum cholesterol (Mean ± S.E.M.) (serum cholesterol; day 3) [%]	% Reduction of serum cholesterol (Mean ± S.E.M.) (serum cholesterol; day 6) [%]	% Reduction of serum cholesterol (Mean ± S.E.M.) (serum cholesterol; day 9) [%]	% Reduction of serum cholesterol (Mean ± S.E.M.) (serum cholesterol; day 12) [%]	difference of liver weights from triolein-treated rats (in words) (liver)	liver weight (mean, S.E.M.) (liver) [g]	liver weight as percentage of total body weight (mean, S.E.M.) (liver) [%]	average percentage weight gain (mean±S.E.M.) [1] [%]	differences in growth versus vehicle-treated rats (in words) [1]	IC50 [2] [µM]	plasma cholesterol-lowering effect in mice (in words) (plasma cholesterol)	inhibitory action on the synthesis of sterols (in words) [3]	inhibitory action on the synthesis of sterols (in words) [4]	also measured
CC(C)CCC[C@@H](C)[C@H]1CC(=O)C2=C3CC[C@H]4C[C@@H](OC(=O)CCC(=O)O)CC[C@]4(C)[C@H]3CC[C@@]21C [3β-hemisuccinoyloxy-5α-cholest-8(14)-en-15-one]	89.1 ± 2.6	78.6 ± 2.4	72.5 ± 1.9	72.3 ± 1.6	58.8 ± 2.8	significant decreases in serum cholesterol levels	13.5 ± 4.4	18.1 ± 4.1	18.4 ± 3.5	33.9 ± 2.9	no significant difference	10.6	4.36	40.7±1.6	no significant differences in the growth	3.2	–	–	–	IC50 (HMG-CoA reductase): 3000 nM
C[C@H](CCCC(C)(C)O)[C@H]1CC[C@H]2[C@@H]3CC=C4C[C@@H](O)CC[C@]4(C)[C@H]3CC[C@]12C [Cholest-5-en-3β,25-diol]	–	–	–	–	–	–	–	–	–	–	–	–	–	–	–	–	no significant plasma cholesterol-lowering effect in mice	strong inhibitory action	strong inhibitory action	IC50 ([3]; L cell cultures, as reported by Kandutsch and Chen, read-out: Concentrations Required for 50% Inhibition of Sterol Synthesis): 70 nM; IC50 ([4]; liver cells, read-out: lowest previously reported concentration for 50% inhibition of sterol synthesis): 1000 nM; IC50 ([4]; primary cultures of liver cells, as reported by Kandutsch and Chen, read-out: Concentrations Required for 50% Inhibition of Sterol Synthesis): 1000 nM
CC(C)CCC[C@@H](C)[C@H]1CC[C@H]2[C@@H]3C(=O)C=C4C[C@@H](O)CC[C@]4(C)[C@H]3CC[C@]12C [7-ketocholesterol]	–	–	–	–	–	–	–	–	–	–	–	–	–	–	–	–	no significant plasma cholesterol-lowering effect in mice	strong inhibitory action	strong inhibitory action	–
CCCCCCCCCCCCCCCC(=O)O[C@H]1CC[C@@]2(C)[C@@H](CCC3=C4C(=O)C[C@H]([C@H](C)CCCC(C)C)[C@@]4(C)CC[C@@H]32)C1 [3β-hexadecanoyloxy-5α-cholest-8(14)-en-15-one]	91.6 ± 2.6	74.9 ± 3.9	75.8 ± 5.0	77.9 ± 5.9	61.4 ± 3.9	significant decreases in serum cholesterol levels	18.2 ± 3.3	15.7 ± 4.4	14.5 ± 2.9	33.2 ± 2.7	differed	11.4	4.53	40.5±4.6	no significant differences in the growth	> 16	–	–	–	–
